Data reported in patent US7419969B2 (Bristol-Myers Squibb Company, priority 2004, dated 2008).

Tests used:
HIV-integrase = biological target: T1, HIV-integrase (Human immunodeficiency virus type 1 group M subtype B, UniProt P04585); experiment: in-vitro activity against HIV-integrase (HIV Integrase Inhibition, SPA bead assay); assay type: biochemical; settings: recombinant integrase, activity class
T1 construct: Recombinant integrase (0.26 ng) was incubated with the beads
In short: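 Recombinant integrase (0.26 ng) pre-bound for 90 min at 37 °C to biotinylated substrate DNA on streptavidin SPA beads, then washed. Inhibitors added with 33P-labelled target DNA; reaction stopped with 10 mM EDTA. Scintillation CPM taken as integration signal.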

Compound	IC50 (HIV-integrase; Table 1a)	melting point	IC50 (HIV-integrase; Table 1)
Cc1ncn(-c2cc(F)ccc2CNC(=O)c2nc3n(c(=O)c2O)CCCOC32CCOCC2)n1 [Example 119, Spiro[4H-pyran-4,10′(4′H)-[6H]pyrimido[2,1-c][1,4]oxazepine]-2′-carboxamide, N-[[4-fluoro-2-(3-methyl-1H-1,2,4-triazol-1-yl)phenyl]methyl]-2,3,5,6,7′,8′-hexahydro-3′-hydroxy-4′-oxo-]	1 to 10 nM	240 °C (dec.)	
Cc1ncn(-c2ccccc2CNC(=O)c2nc3n(c(=O)c2O)CCCOC32CCOCC2)n1 [Example 121, Spiro[4H-pyran-4,10′(4′H)-[6H]pyrimido[2,1-c][1,4]oxazepine]-2′-carboxamide, 2,3,5,6,7,8′-hexahydro-3′-hydroxy-N-[[2-(3-methyl-1H-1,2,4-triazol-1-yl)phenyl]methyl]-4′-oxo-]	10 to 100 nM	247 °C (dec.)	
O=C(NCc1ccc(F)cc1-n1ccnn1)c1nc2n(c(=O)c1O)CCCOC21CCOCC1 [Example 122, Spiro[4H-pyran-4,10′(4′H)-[6H]pyrimido[2,1-c][1,4]oxazepine]-2′-carboxamide, N-[[4-fluoro-2-(1H-1,2,3-triazol-1-yl)phenyl]methyl]-2,3,5,6,7′,8′-hexahydro-3′-hydroxy-4′-oxo-]	1 to 10 nM	239 °C (dec.)	
CS(=O)(=O)c1cc(F)ccc1CNC(=O)c1nc2n(c(=O)c1O)CCCOC21CCOCC1 [Example 116, Spiro[4H-pyran-4,10′(4′H)-[6H]pyrimido[2,1-c][1,4]oxazepine]-2′-carboxamide, N-[[4-fluoro-2-(methylsulfonyl)phenyl]methyl]-2,3,5,6,7′,8′-hexahydro-3′-hydroxy-4′-oxo-]	10 to 100 nM	257 °C (dec.)	
COP(=O)(OC)c1cc(F)ccc1CNC(=O)c1nc2n(c(=O)c1O)CCCOC21CCOCC1 [Example 117, Phosphonic acid, [5-fluoro-2-[[[(2,3,5,6,7′,8′-hexahydro-3′-hydroxy-4′-oxospiro[4H-pyran-4,10′(4′H) -[6H]pyrimido[2,1-c][1,4]oxazepin]-2′-yl)carbonyl]amino]methyl]phenyl]-, dimethyl ester]	10 to 100 nM	234 °C (dec.)	
CNC(=O)c1cc(F)ccc1CNC(=O)c1nc2n(c(=O)c1O)CCCOC21CCOCC1 [Example 115, Spiro[4H-pyran-4,10′(4′H)-[6H]pyrimido[2,1-c][1,4]oxazepine]-2′-carboxamide, N-[[4-fluoro-2-[(methylamino)carbonyl]phenyl]methyl]-2,3,5,6,7′,8′-hexahydro-3′-hydroxy-4′-oxo-]	1 to 10 nM	211 °C (dec.)	
O=C(NCc1ccc(F)cc1-n1cncn1)c1nc2n(c(=O)c1O)CCCOC21CCOCC1 [Example 118, Spiro[4H-pyran-4,10′(4′H)-[6H]pyrimido[2,1-c][1,4]oxazepine]-2′-carboxamide, N-[[4-fluoro-2-(1H-1,2,4-triazol-1-yl)phenyl]methyl]-2,3,5,6,7′,8′-hexahydro-3′-hydroxy-4′-oxo-]	1 to 10 nM	247 °C (dec.)	
Cc1ncnn1-c1cc(F)ccc1CNC(=O)c1nc2n(c(=O)c1O)CCCOC21CCOCC1 [Example 120, Spiro[4H-pyran-4,10′(4′H)-[6H]pyrimido[2,1-c][1,4]oxazepine]-2′-carboxamide, N-[[4-fluoro-2-(5-methyl-1H-1,2,4-triazol-1-yl)phenyl]methyl]-2,3,5,6,7′,8′-hexahydro-3′-hydroxy-4′-oxo-]	10 to 100 nM	204 °C	
O=C(NCc1ccc(F)cc1-n1cncn1)c1nc2n(c(=O)c1O)CCOC21CCCC1 [Example 17, N-[[4-fluoro-2-(1 H-1,2,4-triazol-1-yl)phenyl]methyl]-6′,7′-dihydro-3′-hydroxy-4′-oxo-spiro[cyclopentane-1,9′(4′H)-pyrimido[2,1-c][1,4]oxazine]-2′-carboxamide]			1 to 10 nM
O=C(NCc1ccccc1N1CCCCS1(=O)=O)c1nc2n(c(=O)c1O)CCCC21CCCC1 [Example 8, N-[[2-(tetrahydro-1,1-dioxido-2H-1,2-thiazin-2-yl)phenyl]methyl]-7′,8′-dihydro-3′-hydroxy-4′-oxo-spiro[cyclopentane-1,9′(6′H)-[4H]pyrido[1,2-α]pyrimidine]-2′-carboxamide]			10 to 100 nM
Cc1ncnn1-c1cc(F)ccc1CNC(=O)c1nc2n(c(=O)c1O)CCOC21CCCC1 [Example 32, N-[[4-fluoro-2-(5-methyl-1H-1,2,4-triazol-1-yl)phenyl]methyl]-6′,7′-dihydro-3′-hydroxy-4′-oxo-spiro[cyclopentane-1,9′(4′H)-pyrimido[2,1-c][1,4]oxazine]-2′-carboxamide]			1 to 10 nM
O=C(NCc1ccccc1F)c1nc2n(c(=O)c1O)CCOC21CCCC1 [Example 24, N-[(2-fluorophenyl)methyl]-6′,7′-dihydro-3′-hydroxy-4′-oxo-spiro[cyclopentane-1,9′(4′H)-pyrimido[2,1-c][1,4]oxazine]-2′-carboxamide]			10 to 100 nM
Cc1ccc(CNC(=O)c2nc3n(c(=O)c2O)CCOC32CCOCC2)cc1C [Example 48, N-[(3,4-dimethylphenyl)methyl]-2,3,5,6,6′,7′-hexahydro-3′-hydroxy-4′-oxo-spiro[4H-pyran-4,9′(4′H)-pyrimido[2,1-c][1,4]oxazine]-2′-carboxamide]			1 to 10 nM
O=C(NCc1ccc(F)cc1)c1nc2n(c(=O)c1O)CCCC21CCCC1 [Example 1, N-[(4-fluorophenyl)methyl]-7′,8′-dihydro-3′-hydroxy-4′-oxo-spiro[cyclopentane-1,9′(6′H)-[4H]pyrido[1,2-a]pyrimidine]-2′-carboxamide]			1 to 10 nM
Cc1ncn(-c2cc(F)ccc2CNC(=O)c2nc3n(c(=O)c2O)CCOC32CCCC2)n1 [Example 129, Spiro[cyclopentane-1,9′(4′H)-pyrimido[2,1-c][1,4]oxazine]-2′-carboxamide, N-[[4-fluoro-2-(3-methyl-1H-1,2,4-triazol-1-yl)phenyl]methyl]-6′,7′-dihydro-3′-hydroxy-4′-oxo-]	1 to 10 nM		
O=C(NCc1ccc(F)cc1N1CCCCS1(=O)=O)c1nc2n(c(=O)c1O)CCOC21CCC1 [Example 55, N-[[4-fluoro-2-(tetrahydro-1,1-dioxido-2H-1,2-thiazin-2-yl)phenyl]methyl]-6′,7′-dihydro-3′-hydroxy-4′-oxo-spiro[cyclobutane-1,9′(4′H)-pyrimido[2,1-c][1,4]oxazine]-2′-carboxamide]			1 to 10 nM
